{"source": "patent US9415047B2", "about": "“Use of benzo five-membered nitrogen heterocyclic piperazine or piperidine derivatives” (Liaoning Emmy Biological Pharmaceutical Co., Ltd., priority 2012, dated 2016)", "key": {"[1]": {"system": "AD constricted rabbit aorta", "experiment": "Relaxing effects on vascular smooth muscle constricted by adrenaline hydrochloride (AD) in vitro", "conditions": "Oryctolagus cuniculus; relaxation of rabbit aorta constricted by adrenaline (10^−5 mol/L); mean±SEM, n=5", "in_short": "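Rabbit aortic strips in K-H solution precontracted with adrenaline hydrochloride (10^−5 mol/L) after a reproducible second contraction; compounds added cumulatively over ranges from 1×10^−10 up to 1×10^−2 mol/L depending on the compound series. Relaxation expressed as % of maximal relaxation versus −log concentration, mean±SEM, n=5.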"}, "[2]": {"experiment": "Experiment on acute toxicity", "conditions": "both sexes, Kunming, mouse, in vivo, mice", "text": "Kunming mice (Experimental Animal Center, China Medical University) were used, half male and half female, 18-22 g, brief probability unit method was used to test the acute toxicity of the compound.\nTen Kunming mice (Experimental Animal Center, China Medical University) were used, half male and half female, 18-22 g, brief probability unit method was used to test the acute toxicity of the compound."}, "[3]": {"system": "α1 receptor", "experiment": "Antagonism of accumulative constriction of rabbit aorta by phenylephrine (α-receptor agonist)", "conditions": "agonist (R)-phenylephrine", "method": "PE was also added by using the same method 15 min later. […] The curve was shown in FIG. 21 after positive drug doxazosine mesylate (10^−7 mol/L) was added."}, "[4]": {"system": "SD rats", "experiment": "Effects on blood pressure of SD rats anesthetized with urethane", "format": "in vivo", "conditions": "for diastolic blood pressure (DBP) / mean artery pressure (MAP) / systolic blood pressure (SBP): 1.5 mg/kg gastric gavage, n = 5", "method": "Four SD rats were anesthetized with urethane ([…]), after vital signs became stable, blood pressure was measured by common carotid intubation. After blood pressure became stable, compound II-2 was administered at 4.0 mg/kg via gastric gavage, blood pressure changes with time were observed and recorded.\nFive SD rats (provided by Experimental Animal Center, China Medical University) were anesthetized with urethane ([…]), after vital signs became stable, blood pressure was measured by common carotid intubation. After blood pressure became stable, compound II-85 was administered at 1.5 mg/kg via gastric gavage, blood pressure changes with time were observed and recorded."}, "[5]": {"system": "Calcium Channel (Ca^2+)", "experiment": "Antagonism of accumulative constriction of rabbit aorta by CaCl2", "conditions": "calcium free high kalium depolarization", "protocol": "(§1) Rabbits were hit to be dizzy, with thoracic cavity quickly cut open, descending aorta exposed, connective tissues and surrounding fatty tissues (for hydroxytryptamine receptor antagonism test, endothelia should be removed with smooth stainless steel rod) removed, the aorta was cut into 3-5 mm vascular rings which were penetrated together with a steel wire with one end fixed on ventilation hook, another end on pressure tonotransducer. The aorta rings were put into a bath tube with 20 ml of nutritional solution, and the tension changes were recorded by using the recorder. The temperature of bath tube was maintained at 37±0.5° C., and mixed gas (95% O2+5% CO2) was ventilated at a rate of I-2 bubbles/second. The initial load of the sample was 1.5 g, nutritional solution was changed for every 20 min. The sample was balanced for 2 hours, and the experiment would be started when baseline became stable.\nAfter sample tension became stable, calcium K-H solution was used to flush the sample for 3 times, and incubated with calcium free K-H solution for 40 min. Calcium free high kalium solution was added into the sample for depolarization for 20 min, then CaCl2 (10^−6-10^−2 mol/L) was added into bath tube till maximal response was achieved, and then waveform was recorded. Then K-H solution was used to flush the sample repeatedly, the K-H solution was changed for every 20 min, and the sample was balanced for 60 min. […]\nAfter sample tension became stable, calcium K-H solution was used to flush the sample for 3 times, and incubated with calcium free K-H solution for 40 min. Calcium free high kalium solution was added into the sample for depolarization for 20 min, then CaCl2 (10^−6-10^−2 mol/L) was added into bath tube till maximal response was achieved, and then waveform was recorded. […] Calcium free high kalium solution was added into the sample for depolarization for 20 min, then amlodipine (10^−7 mol/L) was added into bath tube, which was incubated for 15 min, then CaCl2 (10^−6-10^−2 mol/L) was added by using the same method till maximal response was achieved, and then waveform was recorded. […]"}, "[6]": {"system": "Kunming mice", "experiment": "Marrow micronucleus test on mice", "format": "in vivo", "method": "Ten Kunming mice (Experimental Animal Center, China Medical University), half male and half female, were used. Compound II-2 was administered via gastric gavage at 120 mg/kg/day, and II-85 was administered to 74 mg/kg/day. The drug was administered for 4 days continuously. Marrow micronucleus test was performed on day 5.\nMice in positive control group were administered cyclophosphane at 60 mg/kg/day. Mice in negative control group were administered normal saline at 0.1 ml/10 g/day. The drug was administered for 4 days continuously. Marrow micronucleus test was performed on day 5.\nThe mice were killed by snapping neck, and then femur and sternum were excised, with blood and muscles removed, epiphysis cut off. Then marrow from sternum was squeezed to clean glassslide with bovine serum by using a pair of hemostatic forceps, or marrow on femur was flushed directly with bovine serum onto clean glassslide. Then the substance on glassslide were mixed well and smeared. Then the prepared and dried marrow smears were put into staining tank with methanol, fixed for 15 min, picked out to dry in the open air. After marrow smears were dried, it would be stained in freshly prepared Giemsa solution (1 volume of Giemsa stock solution and 9 volumes of pH 6.8 phosphate buffer) for 10 min, staining solution was flushed away with little stream. Then the smear was dried in the open air and observed under a microscope."}, "[7]": {"system": "NA constricted rabbit aorta", "experiment": "Relaxing effects on vascular smooth muscle constricted by noradrenaline (NA) in vitro", "conditions": "Oryctolagus cuniculus; relaxation of rabbit aorta constricted by noradrenaline (10^−5 mol/L); mean±SEM, n=5", "in_short": "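Rabbit aortic rings in K-H solution, pre-tested with adrenaline (10^−5 mol/L), washed and re-equilibrated 60 min, then constricted with noradrenaline (10^−5 mol/L). Compounds added cumulatively from 1×10^−10 up to 1×10^−2 or 1×10^−3 mol/L; relaxation expressed as % of maximal relaxation versus −log concentration (mean±SEM, n=5).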"}, "[8]": {"target": "5-HT2A receptor (Oryctolagus cuniculus, UniProt G1SYA7)", "sequence (G1SYA7 1-469)": "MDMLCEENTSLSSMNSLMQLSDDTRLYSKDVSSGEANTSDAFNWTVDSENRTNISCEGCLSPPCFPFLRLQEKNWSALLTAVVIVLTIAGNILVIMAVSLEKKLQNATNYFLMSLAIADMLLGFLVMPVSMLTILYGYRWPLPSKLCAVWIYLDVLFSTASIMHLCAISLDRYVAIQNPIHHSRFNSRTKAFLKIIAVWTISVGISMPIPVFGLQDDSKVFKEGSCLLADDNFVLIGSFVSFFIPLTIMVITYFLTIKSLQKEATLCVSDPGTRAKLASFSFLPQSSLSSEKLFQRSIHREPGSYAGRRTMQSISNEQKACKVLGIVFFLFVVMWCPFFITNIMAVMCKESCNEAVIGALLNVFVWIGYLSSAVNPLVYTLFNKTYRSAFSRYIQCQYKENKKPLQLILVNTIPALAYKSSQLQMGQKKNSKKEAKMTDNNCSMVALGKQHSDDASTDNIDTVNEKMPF", "experiment": "Antagonism of accumulative constriction of rabbit aorta by 5-HT", "protocol": "as §1\nAfter sample tension became stable, a piece of waveform was recorded, 5-HT (10^−7-3×10^−4 mol/L) was added into the bath tube until maximal response, then waveform was recorded. […] 5-HT was also added by using the same method 20 min later. The maximal response was considered 100%, 5-HT constriction percentage was used as Y axis, negative logarithms of different concentrations of 5-HT were used as X axis to draw dose effective curve.\nAfter sample tension became stable, a piece of waveform was recorded, 5-HT (10^−8-10^−3 mol/L) was added into the bath tube until maximal response, then waveform was recorded. […] 5-HT was also added by using the same method 20 min later. The maximal response was considered 100%, 5-HT constriction percentage was used as Y axis, negative logarithms of different concentrations of 5-HT were used as X axis to draw dose effective curve (data were expressed in mean±SEM ( ? ), *P<0.05, **P<0.01, n=7).\nAfter sample tension became stable, a piece of waveform was recorded, 5-HT (10^−8-3×10^−4 mol/L) was added into the bath tube until maximal response, then waveform was recorded. […] 5-HT was also added by using the same method 20 min later. […]"}}, "note": "“Also recorded” adds a separate entry of the source."}
{"smiles": "Fc1ccc2c(C3CCN(CCCn4nnc5ccccc54)CC3)noc2c1", "note": "[II-85, N-(3-(1H-benzotriazole-1-yl)propyl)4-(3-(6-fluorobenzisoxazolyl))piperidine]", "values": [{"measurement": "EC50", "setting": "[1]", "value": 50.1, "unit": "nM"}, {"measurement": "LD50", "setting": "[2]; intraperitoneal, intraabdominal injection", "value": 108, "unit": "mg/kg"}, {"measurement": "LD50", "setting": "[2]; po, gastric gavage", "value": 222, "unit": "mg/kg"}, {"measurement": "PA2 value to resist constriction of rabbit aorta by PE", "setting": "[3]", "value": "8.62±0.11"}, {"measurement": "diastolic blood pressure (DBP)", "setting": "[4]; 0 min post dosing", "value": 103.06, "unit": "mmHg"}, {"measurement": "mean artery pressure (MAP)", "setting": "[4]; 0 min post dosing", "value": 116.63, "unit": "mmHg"}, {"measurement": "systolic blood pressure (SBP)", "setting": "[4]; 0 min post dosing", "value": 143.77, "unit": "mmHg"}, {"measurement": "diastolic blood pressure (DBP)", "setting": "[4]; 15 min post dosing", "value": 75.36, "unit": "mmHg"}, {"measurement": "mean artery pressure (MAP)", "setting": "[4]; 15 min post dosing", "value": 91.98, "unit": "mmHg"}, {"measurement": "systolic blood pressure (SBP)", "setting": "[4]; 15 min post dosing", "value": 125.22, "unit": "mmHg"}, {"measurement": "diastolic blood pressure (DBP)", "setting": "[4]; 30 min post dosing", "value": 68.68, "unit": "mmHg"}, {"measurement": "mean artery pressure (MAP)", "setting": "[4]; 30 min post dosing", "value": 84.42, "unit": "mmHg"}, {"measurement": "systolic blood pressure (SBP)", "setting": "[4]; 30 min post dosing", "value": 115.90, "unit": "mmHg"}, {"measurement": "diastolic blood pressure (DBP)", "setting": "[4]; 60 min post dosing", "value": 75.49, "unit": "mmHg"}, {"measurement": "mean artery pressure (MAP)", "setting": "[4]; 60 min post dosing", "value": 91.24, "unit": "mmHg"}, {"measurement": "systolic blood pressure (SBP)", "setting": "[4]; 60 min post dosing", "value": 122.75, "unit": "mmHg"}, {"measurement": "diastolic blood pressure (DBP)", "setting": "[4]; 90 min post dosing", "value": 83.32, "unit": "mmHg"}, {"measurement": "mean artery pressure (MAP)", "setting": "[4]; 90 min post dosing", "value": 97.37, "unit": "mmHg"}, {"measurement": "systolic blood pressure (SBP)", "setting": "[4]; 90 min post dosing", "value": 125.48, "unit": "mmHg"}, {"measurement": "diastolic blood pressure (DBP)", "setting": "[4]; 120 min post dosing", "value": 83.71, "unit": "mmHg"}, {"measurement": "mean artery pressure (MAP)", "setting": "[4]; 120 min post dosing", "value": 96.77, "unit": "mmHg"}, {"measurement": "systolic blood pressure (SBP)", "setting": "[4]; 120 min post dosing", "value": 122.89, "unit": "mmHg"}, {"measurement": "diastolic blood pressure (DBP)", "setting": "[4]; 150 min post dosing", "value": 95.06, "unit": "mmHg"}, {"measurement": "mean artery pressure (MAP)", "setting": "[4]; 150 min post dosing", "value": 108.73, "unit": "mmHg"}, {"measurement": "systolic blood pressure (SBP)", "setting": "[4]; 150 min post dosing", "value": 136.08, "unit": "mmHg"}, {"measurement": "diastolic blood pressure (DBP)", "setting": "[4]; 180 min post dosing", "value": 86.22, "unit": "mmHg"}, {"measurement": "mean artery pressure (MAP)", "setting": "[4]; 180 min post dosing", "value": 100.11, "unit": "mmHg"}, {"measurement": "systolic blood pressure (SBP)", "setting": "[4]; 180 min post dosing", "value": 127.90, "unit": "mmHg"}, {"measurement": "diastolic blood pressure (DBP)", "setting": "[4]; 210 min post dosing", "value": 97.96, "unit": "mmHg"}, {"measurement": "mean artery pressure (MAP)", "setting": "[4]; 210 min post dosing", "value": 111.02, "unit": "mmHg"}, {"measurement": "systolic blood pressure (SBP)", "setting": "[4]; 210 min post dosing", "value": 137.13, "unit": "mmHg"}, {"measurement": "diastolic blood pressure (DBP)", "setting": "[4]; 240 min post dosing", "value": 102.84, "unit": "mmHg"}, {"measurement": "mean artery pressure (MAP)", "setting": "[4]; 240 min post dosing", "value": 115.95, "unit": "mmHg"}, {"measurement": "systolic blood pressure (SBP)", "setting": "[4]; 240 min post dosing", "value": 142.19, "unit": "mmHg"}, {"measurement": "time until blood pressures recovered to those before drug dosing", "setting": "[4]; anesthetized SD rats, gastric gavage", "value": 6, "unit": "h"}, {"measurement": "oral absorption", "setting": "[4]; in vivo bulk testing on rats", "value": "good oral absorption"}, {"measurement": "hypotensive effects", "setting": "[4]; rats, gastric gavage", "value": "obvious hypotensive effects; also recorded: good hypotensive effects"}, {"measurement": "PA2 value to resist constriction of rabbit aorta by CaCl2", "setting": "[5]", "value": "6.10±0.13"}, {"measurement": "marrow micronucleus test result", "setting": "[6]", "value": "negative"}, {"measurement": "micronuclei cells in 1000 polychromatic erythrocytes", "setting": "[6]; dosed 4 days, test on day 5, II-2 120, II-85 74, cyclophosphane 60 mg/kg/day", "value": "2.5±0.373", "unit": "%"}, {"measurement": "EC50", "setting": "[7]", "value": 30.9, "unit": "nM"}, {"measurement": "Kb", "setting": "[8]", "value": 0.871, "unit": "nM"}]}
